Columns and labels:
Sulfur content = format: physicochemical; settings: by weight
[1] = test system: rat meningeal fibroblasts (RMF); assay: Colorimetric cell adhesion assay, RMF; format: cell-based; settings: RMF on PLL; 4 hr incubation; FIG. 7
Protocol: Primary Cell Cultures. Primary cultures of rat meningeal fibroblasts (RMF) were obtained from P-3 rat pups. The tissue was removed from the animals and transferred to Leibovitz's L-15 with L-glutamine medium. The tissue was then cut into small pieces with a scalpel blade, enzymatically dissociated with 0.25% trypsin in Ca^2+/Mg^2+ free Hank's balanced salt solution (CMF-HBSS, Gibco Laboratories) for 20 minutes at 37° C., and mechanically triturated. The cells were rinsed with DMEM plus 10% FCS, concentrated by centrifugation and subsequently diluted in DMEM with 10% FCS for plating at 5.0×10^6 cells per 75 cm^2 flask. Adult rat sciatic nerve fibroblasts (RSF) were obtained by explantation of 1 mm sections of adult rat sciatic nerve.
(§1) Microtiter plates were precoated with poly-L-lysine and blocked with 1% BSA in DMEM for 20 min prior to addition of cells. The cells were plated on the precoated 96-well plates and test compounds were added to the culture medium. Following 4-24 hr incubation at 36° C., 5% C02, in a humidified incubator, the tetrazolium salt MTT (3-(4,5-dimethylthazol-2-yl)-2,5-diphenyl tetrazolium bromide) was added. The cultures were incubated for 2 hr to allow mitochondrial succinate dehydrogenase, found in viable cells, to […] the MTT to its formazan blue reaction product. The media was aspirated and the wells were rinsed to remove all detached cells. The formazan blue reaction product in attached cells was solubilized with 0.08 N HCl in isopropanol, and the plates were read in a microtiter plate reader (Dynatech MR4000) at 570 nm with a 630 nm reference filter. The resulting optical density readings are directly related to the number of viable cells in the well (Mosmann, T., 1983, J. Immunol. Methods 65:55-63). The samples were run in 3-6 replicates per point and the SD was less than 5%.
(§2) The adhesion of fibroblasts to PLL-coated microtiter plates in the presence of test compounds in the culture medium was evaluated using an MTT assay as described in Section 8.1.5., supra, and the number of attached cells was expressed as percent of control. The effect of 4 hr incubation in the presence of heparin, pentosan polysulfate, dextran sulfate, and dextran on adhesion of rat meningeal fibroplasts (RMF) and 3T3 cells to PLL is shown in FIG. 7.

3T3 cells = assay: Colorimetric cell adhesion assay, 3T3; format: cell-based, mouse; settings: 3T3 cells on PLL; 4 hr incubation; FIG. 7
Protocol: (§3) Cell lines. Murine 3T3 fibroblast (NIH), rat C6 glioma (Paganetti et al., 1988, J. Cell Biol. 107:2281) and MCG-28 young immortalized mouse astrocyte (a murine neonatal astrocyte line immortalized with SV-40) were grown in medium composed of Dulbecco's modified Eagle medium (DMEM), 10% fetal calf serum (Gibco Laboratories), and penicillin G/streptomycin (100 units/ml, 100 μg/ml respectively, Gibco Laboratories). For the stripe assay, confluent plates were disaggregated with 0.05% trypsin, 0.53 mM EDTA (Gibco Laboratories) and seeded at 200,000 cells/ml (3 ml/plate). For the cell adhesion assays, confluent cultures were disaggregated with 0.03% EDTA and plated in a 96-well microtiter plate at 20,000-100,000 cells per well. PC12 cells, a pheochromocytoma cell line (Green L. A. & Tischler A. S., 1976, Proc. Natl. Acad. Sci. U.S.A. 73:2424), were grown in medium containing Roswell Park Memorial Institute (RPMI) medium 1640 (Gibco Laboratories), 10% horse serum, 5% fetal calf serum (FCS), and penicillin G/streptomycin (100 units/ml, 100 μg/ml respectively, Gibco Laboratories). The cells were disaggregated with 0.03% EDTA and plated in a 96-well microtiter plate at 3,000 cells per well.
as §1, §2

[2] = test system: DRG explants, neuronal and non-neuronal cell migration; assay: Explant outgrowth assay; format: cell-based, chick
Protocol: Primary Explant Cultures. Dorsal root ganglia (DRGs) were obtained from E8-E9 chick embryos. The dissection was carried out in CMF-HBSS. The spinal cord was exposed and DRGs were removed and cleaned from surrounding connective tissue. DRGs were plated in DMEM/F12, 10% fetal calf serum containing 50 ng/ml nerve growth factor (NGF). The DRGs were seeded on laminin (LN, Gibco Laboratories) or poly-L-lysine (PLL, Sigma) coated dishes.
The relative outgrowth, compared to outgrowth of untreated controls, was rated as follows: 1: 0-19% of control; 2: 20-39% of control; 3: 40-59% of control; 4: 60-79% of control; 5: 80-100% of control.
The effect of heparin and dextran sulfate on cell migration from explant cultures of chick DRGs was tested. DRGs were plated in culture dishes precoated with a substratum of either PLL or LN and grown in culture medium containing different concentrations of heparin, dextran sulfate or dextran solutions. In the absence of a test compound, within 24-48 hours a halo of neuritic outgrowth and migrating non-neuronal cells, i.e., fibroblasts and Schwann cells, was evident around the ganglia (FIG. 6A). The size of the cellular halo migrating from the DRG explant was reduced when the explant was grown in the presence of 0.4 mg/ml heparin (FIG. 6B). […] In contrast, 0.4 mg/ml dextran had no effect (FIG. 6D). The size of the cellular halo emanating from DRGs grown in the presence of test compounds was evaluated relative to untreated control and rated as described in Section 8.1.3, supra (Table 9).

PC12 cells = assay: PC12 neurite outgrowth assay; format: cell-based; settings: NGF-primed PC12 cells; scored 2 days later
Protocol: as §3
PC12 cells were primed with 20 ng/ml NGF for 8 days, collected with 0.03% EDTA in PBS and plated in precoated 96-well microtiter plates at 3,000 cells/well. The microtiter plates were precoated with poly-L-lysine and blocked with adhesion medium (1% BSA in RPMI) for 20 min prior to addition of cells. The cells were grown in adhesion medium supplemented with 20 ng/ml NGF. The cells were allowed to attach for 2 hr prior to the addition of the test compounds (Akeson and Warren, 1986, Exp. Cell Res. 162:347-362).
PC-12 cells primed with NGF were plated in 96-well plates. Test solutions were added to the wells and the cells were scored 2 days later as (+) if neurites of at least two cell bodies diameter in length were present on the majority of the cells, and (−) if no or only short processes were present. […] The compounds tested included GAGs (heparin, dermatan sulfate, chondroitin sulfate A, keratan sulfate and hyaluronic acid), sulfated carbohydrate polymers (dextran sulfate and pentosan polysulfate), and another polyanionic polymer (e.g., alginic acid).

[3] = 0.5 μg/ml in culture medium, PLL substratum
[4] = 1 μg/ml in culture medium, PLL substratum
[5] = 1.25 μg/ml in culture medium, LN substratum
[6] = 1.25 μg/ml in culture medium, PLL substratum
[7] = 2 μg/ml in culture medium, PLL substratum
[8] = 10 μg/ml in culture medium, LN substratum
[9] = 10 μg/ml in culture medium, PLL substratum
[10] = 50 μg/ml in culture medium, LN substratum
[11] = 50 μg/ml in culture medium, PLL substratum
[12] = 200 μg/ml in culture medium, LN substratum
[13] = 200 μg/ml in culture medium, PLL substratum
[14] = 400 μg/ml in culture medium, LN substratum
[15] = 400 μg/ml in culture medium, PLL substratum
[16] = 2 μg/ml in culture medium, LN substratum

| Substance | Sulfur Content (Sulfur content) | number of attached cells compared to untreated controls [1] | number of attached cells compared to untreated controls (3T3 cells) | Cellular Migration from DRG Explants, rating relative to untreated control [2, 3] | Cellular Migration from DRG Explants, rating relative to untreated control [2, 4] | Cellular Migration from DRG Explants, rating relative to untreated control [2, 5] | Cellular Migration from DRG Explants, rating relative to untreated control [2, 6] | Cellular Migration from DRG Explants, rating relative to untreated control [2, 7] | Cellular Migration from DRG Explants, rating relative to untreated control [2, 8] | Cellular Migration from DRG Explants, rating relative to untreated control [2, 9] | Cellular Migration from DRG Explants, rating relative to untreated control [2, 10] | Cellular Migration from DRG Explants, rating relative to untreated control [2, 11] | Cellular Migration from DRG Explants, rating relative to untreated control [2, 12] | Cellular Migration from DRG Explants, rating relative to untreated control [2, 13] | Cellular Migration from DRG Explants, rating relative to untreated control [2, 14] | Cellular Migration from DRG Explants, rating relative to untreated control [2, 15] | IC100, minimum concentration causing 100% inhibition of neurite outgrowth (PC12 cells) | Cellular Migration from DRG Explants, rating relative to untreated control [2, 16] |
| --- | --- | --- | --- | --- | --- | --- | --- | --- | --- | --- | --- | --- | --- | --- | --- | --- | --- | --- |
| Heparin | 11.8% | decreased | decreased | 5 (5 = 80-100% of control) | 4 (4 = 60-79%) | 5 (5 = 80-100% of control) | 2 (2 = 20-39%) | 2 (2 = 20-39%) | 5 (5 = 80-100% of control) | 2 (2 = 20-39%) | 5 (5 = 80-100% of control) | 2 (2 = 20-39%) | 5 (5 = 80-100% of control) | 2 (2 = 20-39%) | 5 (5 = 80-100% of control) | 1 (1 = 0-19%) | 2.6e-07 g/mL | – |
| dextran [reference compound] | 0% | slight increase | slight increase | – | – | – | – | – | 5 (5 = 80-100% of control) | – | 5 (5 = 80-100% of control) | 5 (5 = 80-100% of control) | 5 (5 = 80-100% of control) | 5 (5 = 80-100% of control) | 5 (5 = 80-100% of control) | 5 (5 = 80-100% of control) | >0.001 g/mL | 5 (5 = 80-100% of control) |
| dextran sulfate | 15.3% | decreased | decreased | 5 (5 = 80-100% of control) | 3 (3 = 40-59%) | 5 (5 = 80-100% of control) | 2 (2 = 20-39%) | 1 (1 = 0-19%) | 1 (1 = 0-19%) | 1 (1 = 0-19%) | 1 (1 = 0-19%) | 1 (1 = 0-19%) | 1 (1 = 0-19%) | 1 (1 = 0-19%) | 1 (1 = 0-19%) | 1 (1 = 0-19%) | 5.2e-07 g/mL | 3 (3 = 40-59%) |

Reference: patent publication US6756362B2, “Methods and compositions based on inhibition of cell invasion and fibrosis by anionic polymers” (priority 1991, dated 2004)
